The structures appear in SMILES notation.

Holding throughout (assay type): in vivo
In series [1] the test system is Abutilon theophrasti. The experiment in a line: Herbicidal action post-emergence, greenhouse pot test. In short, it runs like this: (§1)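 Efficacy is a visual percentage, 0% like untreated and 100% dead, read about 3 weeks after treatment under optimal greenhouse growth. Treatment was a post-emergence spray of aqueous WP or EC preparations at 80 g/ha or lower with 0.5% additive.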

The test system of series [2] is Alopecurus myosuroides. The series is described as above. Particulars: scored visually after about 3 weeks vs untreated controls. In short, it runs like this: as §1
The subject of series [3] is Amaranthus retroflexus. The description is as above. In short, it runs like this: as §1
In series [4] the test system is Avena fatua. Described as above. In short, it runs like this: as §1
The test system of series [5] is Echinochloa crus-galli. The description is as above. Summed up: as §1
In series [6] the test system is Lolium rigidum. The description is as above. Particulars: application rate 80 g/ha. Summed up:
as §1

The subject of series [7] is Matricaria inodora. The description is as above. In short, it runs like this:
as §1

The subject of series [8] is Pharbitis purpurea. The series is described as above. In short, it runs like this: as §1
Series [9] relates to Polygonum convolvulus. The description is as above. Summed up: as §1
Series [10] concerns Setaria viridis. The description is as above. Particulars: application rate 20 g/ha. In short, it runs like this: as §1
Series [11] has as its system Stellaria media. The description is as above. In short, it runs like this:
as §1

For series [12], the system named is Veronica persica. The description is as above. Summed up: as §1
Series [13] concerns Viola tricolor. The series is described as above. Summed up: as §1
A further series deals with Oryza sativa. Nature of the series: Crop compatibility post-emergence, greenhouse pot test. Particulars: application rate 20 g/ha. Summed up: (§2)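 Greenhouse post-emergence spray at one-leaf stage, 600 L/ha with 0.5% additive. Injury was assessed visually after about 3 weeks as % of untreated control.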
For another series, the system named is Triticum aestivum. The description is as above. Particulars: application rate 20 g/ha. Summed up:
as §2

Another series has as its system Zea mays. The series is described as above. Particulars: application rate 20 g/ha. Summed up: as §2
For series [14], the system named is Abutilon theophrasti. Nature of the series: Herbicidal action pre-emergence, greenhouse pot test. Particulars: application rate 320 g/ha. Summed up:
(§3)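 Soil-applied pre-emergence treatment: aqueous suspension or emulsion of WP or EC formulation, 0.5% additive, water equivalent to 600 L/ha, dose of 320 g/ha or lower. Readout is visual percent efficacy after ~3 weeks, where 0% equals control plants.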

In series [15] the test system is Alopecurus myosuroides. Described as above. Particulars: application rate 320 g/ha. In short, it runs like this:
as §3

For series [16], the system named is Amaranthus retroflexus. Described as above. Summed up:
as §3

Series [17] concerns Avena fatua. The description is as above. Particulars: application rate 320 g/ha. In short, it runs like this:
as §3

Another series has as its system Cyperus esculentus. The series is described as above. The following applies: application rate 320 g/ha. In short, it runs like this: as §3
Series [18] deals with Echinochloa crus-galli. The series is described as above. The following applies: application rate 320 g/ha. Summed up: as §3
The test system of a further series is Hordeum murinum. Described as above. Particulars: application rate 320 g/ha. Summed up: as §3
Series [19] relates to Pharbitis purpurea. The series is described as above. Particulars: application rate 320 g/ha. Summed up: as §3
In series [20] the test system is Polygonum convolvulus. The series is described as above. Particulars: application rate 320 g/ha. In short, it runs like this: as §3
In series [21] the test system is Setaria viridis. The series is described as above. Particulars: application rate 320 g/ha. Summed up:
as §3

The test system of series [22] is Veronica persica. Described as above. Particulars: application rate 320 g/ha. Summed up: as §3
The test system of series [23] is Viola tricolor. Described as above. Particulars: application rate 320 g/ha. Summed up:
as §3

Series [24] relates to Matricaria inodora. The description is as above. Particulars: application rate 320 g/ha.
Series [25] concerns Lolium rigidum. Described as above. The following applies: application rate 320 g/ha. In short, it runs like this:
as §3

The subject of series [26] is Stellaria media. The series is described as above. Particulars: application rate 320 g/ha. In short, it runs like this: as §3
Another series concerns Digitaria sanguinalis. Nature of the series: Herbicidal action post-emergence, greenhouse pot test. Particulars: application rate 20 g/ha.

`CC(Sc1cc(-n2c(=O)cc(C(F)(F)F)n(C)c2=O)c(F)cc1Cl)C(=O)OC1CCNC1=O` (stereo not drawn) [I.1-251]: the “Abutilon theophrasti (Efficacy in %)” value with Abutilon theophrasti [1] (application rate 80 g/ha) and in the series with Abutilon theophrasti [14] was 100% each time. Also, the “Alopecurus myosuroides (Efficacy in %)” value with Alopecurus myosuroides [2] (application rate 80 g/ha) and with Alopecurus myosuroides [15] was 100% each time. The “Amaranthus retroflexus (Efficacy in %)” value in the series on Amaranthus retroflexus [3] (application rate 80 g/ha) and in the series on Amaranthus retroflexus [16] (application rate 80 g/ha) was 100% throughout. Further, the “Avena fatua (Efficacy in %)” value in the series with Avena fatua [4] (application rate 80 g/ha) came out at 80%; in the series on Avena fatua [17], 90%. The “Echinochloa crus-galli (Efficacy in %)” value with Echinochloa crus-galli [5] (application rate 80 g/ha) and in the series on Echinochloa crus-galli [18] was 100% each time. Further, in the series with Lolium rigidum [6], the “Lolium rigidum (Efficacy in %)” value stood at 100%. Further, the “Matricaria inodora (Efficacy in %)” value with Matricaria inodora [7] (application rate 80 g/ha) and with Matricaria inodora [24] was 100% in each case. Besides, the “Pharbitis purpurea (Efficacy in %)” value with Pharbitis purpurea [8] (application rate 80 g/ha) and in the series with Pharbitis purpurea [19] was 100% throughout. Moreover, the “Polygonum convolvulus (Efficacy in %)” value with Polygonum convolvulus [9] (application rate 80 g/ha) and in the series with Polygonum convolvulus [20] was 100% in each case. In addition, the “Setaria viridis (Efficacy in %)” value in the series on Setaria viridis [10] and in the series on Setaria viridis [21] was 100% each time. Moreover, the “Stellaria media (Efficacy in %)” value in the series with Stellaria media [11] (application rate 80 g/ha) is 100%. The “Veronica persica (Efficacy in %)” value in the series with Veronica persica [12] (application rate 80 g/ha) and with Veronica persica [22] was 100% in each case. Also, the “Viola tricolor (Efficacy in %)” value in the series on Viola tricolor [13] (application rate 80 g/ha) and in the series on Viola tricolor [23] was 100% throughout. Further, the “Oryza sativa (Efficacy in %)” value in the series with Oryza sativa stood at 20%. Also, the “Triticum aestivum (Efficacy in %)” value in the series with Triticum aestivum was 10%. In addition, the “Zea mays (Efficacy in %)” value in the series with Zea mays came to 10%. The “Cyperus esculentus (Efficacy in %)” value with Cyperus esculentus is given as 80%. In the series on Hordeum murinum, the “Hordeum murinum (Efficacy in %)” value is reported as 90%.
In the case of `COC(=O)CC(CC(=O)OC)OC(=O)CSc1cc(-n2c(=O)cc(C(F)(F)F)n(C)c2=O)c(F)cc1Cl` [I.8-127], the “Abutilon theophrasti (Efficacy in %)” value with Abutilon theophrasti [1] (application rate 20 g/ha) and in the series with Abutilon theophrasti [14] was 100% throughout. For the same compound, the “Alopecurus myosuroides (Efficacy in %)” value in the series with Alopecurus myosuroides [2] (application rate 80 g/ha) turned out to be 80%. Further, the “Amaranthus retroflexus (Efficacy in %)” value in the series with Amaranthus retroflexus [3] (application rate 20 g/ha) and with Amaranthus retroflexus [16] (application rate 20 g/ha) was 100% throughout. Besides, the “Avena fatua (Efficacy in %)” value with Avena fatua [4] (application rate 80 g/ha) was determined as 80%. Besides, the “Echinochloa crus-galli (Efficacy in %)” value in the series with Echinochloa crus-galli [5] (application rate 20 g/ha) and in the series on Echinochloa crus-galli [18] was 100% each time. Moreover, the “Lolium rigidum (Efficacy in %)” value with Lolium rigidum [6] and with Lolium rigidum [25] was 90% in each case. Also, the “Matricaria inodora (Efficacy in %)” value in the series with Matricaria inodora [7] (application rate 20 g/ha) and in the series on Matricaria inodora [24] was 100% in each case. In addition, the “Pharbitis purpurea (Efficacy in %)” value in the series with Pharbitis purpurea [8] (application rate 20 g/ha) and in the series on Pharbitis purpurea [19] was 100% in each case. Moreover, the “Polygonum convolvulus (Efficacy in %)” value in the series with Polygonum convolvulus [9] (application rate 80 g/ha) and in the series with Polygonum convolvulus [20] was 100% in each case. Further, the “Setaria viridis (Efficacy in %)” value with Setaria viridis [10] and with Setaria viridis [21] was 100% in each case. Also, the “Stellaria media (Efficacy in %)” value in the series on Stellaria media [11] (application rate 20 g/ha) and in the series with Stellaria media [26] was 100% in each case. Besides, the “Veronica persica (Efficacy in %)” value in the series with Veronica persica [12] (application rate 20 g/ha) and with Veronica persica [22] was 100% in each case. Moreover, in the series with Viola tricolor [13] (application rate 80 g/ha), the “Viola tricolor (Efficacy in %)” value came out at 100%. Also, the “Cyperus esculentus (Efficacy in %)” value in the series with Cyperus esculentus came out at 90%. For the same compound, in the series on Hordeum murinum, the “Hordeum murinum (Efficacy in %)” value came out at 90%.
Regarding `CCOC(=O)CCOC(=O)C(CC)Sc1cc(-n2c(=O)cc(C(F)(F)F)n(C)c2=O)c(F)cc1Cl` (stereo not drawn) [I.1-2-3, 3-Ethoxy-3-oxopropyl 2-({2-chloro-4-fluoro-5-[3-methyl-2,6-dioxo-4-(trifluoromethyl)-3,6-dihydropyrimidin-1(2H)-yl]phenyl}sulfanyl)butanoate], the “Abutilon theophrasti (Efficacy in %)” value with Abutilon theophrasti [1] (application rate 20 g/ha) was 100%. The “Alopecurus myosuroides (Efficacy in %)” value in the series with Alopecurus myosuroides [2] (application rate 20 g/ha) stood at 90%. Also, the “Amaranthus retroflexus (Efficacy in %)” value in the series on Amaranthus retroflexus [3] (application rate 20 g/ha) was 100%. Besides, the “Avena fatua (Efficacy in %)” value in the series on Avena fatua [4] (application rate 20 g/ha) is on record as 100%. Also, the “Echinochloa crus-galli (Efficacy in %)” value in the series on Echinochloa crus-galli [5] (application rate 20 g/ha) came to 100%. Moreover, the “Matricaria inodora (Efficacy in %)” value in the series on Matricaria inodora [7] (application rate 20 g/ha) came out at 100%. In addition, the “Pharbitis purpurea (Efficacy in %)” value in the series on Pharbitis purpurea [8] (application rate 20 g/ha) is recorded as 100%. In addition, in the series with Polygonum convolvulus [9] (application rate 20 g/ha), the “Polygonum convolvulus (Efficacy in %)” value came out at 100%. Moreover, the “Setaria viridis (Efficacy in %)” value with Setaria viridis [10] worked out at 100%. In addition, in the series on Stellaria media [11] (application rate 20 g/ha), the “Stellaria media (Efficacy in %)” value amounted to 100%. Also, the “Veronica persica (Efficacy in %)” value in the series with Veronica persica [12] (application rate 20 g/ha) came to 100%. Moreover, the “Viola tricolor (Efficacy in %)” value in the series on Viola tricolor [13] (application rate 20 g/ha) is given as 100%. Also, the “Oryza sativa (Efficacy in %)” value with Oryza sativa was 0%. For the same compound, the “Zea mays (Efficacy in %)” value in the series on Zea mays is on record as 0%. For the same compound, in the series on Digitaria sanguinalis, the “Digitaria sanguinalis (Efficacy in %)” value is 100%.

The record behind these values is patent US11274083B2, “Substituted thiophenyl uracils, salts thereof and the use thereof as herbicidal agents” (Syngenta Crop Protection AG, priority 2017, dated 2022).
